Laboratory results published in article PMC7349657, “Efficient Targeted Degradation via Reversible and Irreversible Covalent PROTACs” (Journal of the American Chemical Society, 2020).

Assays:
BTK = BTK (Homo sapiens, UniProt Q06187); experiment: Time course of BTK degradation in Ramos and Mino cells; type: cell-based; parameters: endogenous in cells; host or cells: Mino (ATCC CRL-3000), Ramos (ATCC CRL-1596), K562 (NCI-60); settings: 100 nM PROTAC, Ramos cells (RC-3: Mino cells)
Description: We followed the rate of BTK degradation facilitated by this compound series via a time course experiment in Ramos and Mino cells (Supporting Figure 3). The rates of degradation correlated well with the DC50 values observed after 24 h, with NC-1, IR-1, IR-2, and RC-3 degrading BTK within 2–4 h, while RC-2 and RC-1 required 6–24 h to reach maximum degradation.
Ramos (ATCC, CRL-1596), Mino (ATCC, CRL-3000), or K562 (NCI-60) cell lines were counted and diluted to 10^6 cell/mL, using 1 mL per well in a 24-well plate, and U2OS (ATCC HTB-96) cells overexpressing human BTK WT or C481S mutant were grown using 2 mL in a six-well plate (see Supporting Information). Cells were incubated with 1% DMSO or compound in indicated concentrations for 24 h unless indicated differently, or cells were left untreated. Lysates were prepared as previously described,[29] and samples were measured for total protein quantification by bicinchoninic acid (BCA) assay (#23225 ThermoFisher Scientific) supplemented with 4× loading buffer including 20 mM DTT, heated to 70 °C for 10 min, loaded into 4% SDS-PAGE gel, run for 45 min at 140 mV, then transferred into a nitrocellulose membrane (Biorad) using a Trans-Blot Turbo transfer system (Biorad). The membrane was stained with Ponceau (Sigma) to validate transfer for 10 min in gentle agitation then destained for 1 h with MQ water. The membrane was blocked with Licor blocking buffer (LIC927-70001) for 1 h, washed three times for 5 min with TBS-T, incubated with primary antibody BTK (D3H5) rabbit mAb (CST; 8547 S) overnight (16 h) at 4 °C, washed three times for 5 min with TBS-T, and incubated with primary antibody against β-actin (CST; 3700) for 1 h at 25 °C. Membrane was washed three times for 5 min with TBS-T, incubated with fluorescent secondary antibodies anti-mouse IgG Alexa Fluor 647 (CST: 4410S) and anti-rabbit-IgG IRDye 800(LICOR: 926-32211) for 1 h, then washed three times for 5 min with TBS-T, dried, and immediately imaged and analyzed using Licor Odyssey CLx. Prism (GraphPad) software was used to calculate degradation levels. We used second-order polynomial fits to estimate DC50 and Dmax values.
Supplementary Figure 3: BTK degradation time dependency.
Ramos (PI3I, RC-1, I R-1, R C-2, I R-2, NC-1) or Mino ( RC-3) cells were treated with 100 nM of PROTAC or DMSO for indicated times, subsequently harvested for BTK levels measurement via western blot.
(1 picture or pasted object on this page, not shown here)

primary mouse B cells = experiment: B cell activation after anti-IgM stimulation, CD86 staining; type: cell-based
Description: Lastly, we assessed the ability of the PROTACs to abrogate the activation of primary mouse B cells in response to B cell receptor stimulation. For this purpose, primary B cells were treated with anti-IgM for 18 h,[36],[37] followed by staining for CD86, a B cell activation surface marker (Figure 8; Supporting Figure 7). […]
supplemented with 300 mM imidazole). The His tag was cleaved by the addition of TEV protease with concomitant dialysis overnight into cleavage buffer (50 mM Tris, pH 8.0, 0.5 mM EDTA, 1 mM DTT) at 4°C. The resulting soluble protein was passed ov er Ni -NTA beads to remove the protease and purified further by gel filtration on a HiLoad_16/60_Superdex_75 (GE Healthcare) column equilibrated with 20 mM Tris, pH 8.0, 50 mM NaCl, 1 mM DTT. The pure protein was then flash-frozen in liquid nitrogen and stored at −80°C.
C57BL/6 mice were purchased from Harlan (Rehovot, Israel) and maintained in a pathogen-free facility, experiments were carried on 8-12 weeks old male mice. All exp eriments with mice were approved by the Weizmann Institute Animal Care and Use Committee.
Splenic cells from C57BL/6 mice were isolated by forcing spleen tissue through mesh into PBS containing 2% fetal calf serum and 1 mM EDTA and red blood cells were depleted by lysis buffer. Cells were cultured in 96-well U-b ottom dishes (1x10^6 cells/m L in RPMI 10% […]
nM, 10 nM, 1 nM, 0.1 nM) for 24 hours at 37° C in 5% humidified CO2 incubator. Following a 24 hours incubation, cells were stimulated with anti-IgM overnight (5 µg/mL, Sigma-Aldrich). Subsequently, cells were stained with anti-B220 (clone RA3-6B2, Biolegend) and anti-CD86 (clone GL-1, Biolegend) antibodies for 30 minutes at 4°C. Single cell suspensions were analyzed by a flow cytometer (CytoFlex, Beckman Coulter).
Cells were analyzed by intensity based, label-free mass spectrometry based proteomics.
Sample preparation: 106 Ramos cells were treated in four replicates with either compound or DMSO for 24 hours. Cells were then washed twice by centrifuge at 200 rcf, 4°C for 5 minutes, removing the supernatant and washed with ice cold PBS. Samp les were then centrifuged at 200 rcf, 4°C for 5 minutes, then supernatant was removed and samples were frozen at -80°C.
Samples were dispersed in 75 µl of 50 mM ammonium bicarbonate, and transferred to 1.8 mL glass vials. 75 µl of 10% SDS in 50 mM ammonium bicarbonate were added and the samples were heated to 96° C for 6 minutes. The samples were sonicated thoroughly in a sonication bath until the DNA was sheared as indicated by reduction in viscosity to level enabling easy pipettation. Total protein concentration was estimated using BCA as say and 30 µg from each sample was taken for the experiment.

[1] = anti-IgM stimulation, PROTAC 24 h

Chain of BTK (Q06187 whole entry): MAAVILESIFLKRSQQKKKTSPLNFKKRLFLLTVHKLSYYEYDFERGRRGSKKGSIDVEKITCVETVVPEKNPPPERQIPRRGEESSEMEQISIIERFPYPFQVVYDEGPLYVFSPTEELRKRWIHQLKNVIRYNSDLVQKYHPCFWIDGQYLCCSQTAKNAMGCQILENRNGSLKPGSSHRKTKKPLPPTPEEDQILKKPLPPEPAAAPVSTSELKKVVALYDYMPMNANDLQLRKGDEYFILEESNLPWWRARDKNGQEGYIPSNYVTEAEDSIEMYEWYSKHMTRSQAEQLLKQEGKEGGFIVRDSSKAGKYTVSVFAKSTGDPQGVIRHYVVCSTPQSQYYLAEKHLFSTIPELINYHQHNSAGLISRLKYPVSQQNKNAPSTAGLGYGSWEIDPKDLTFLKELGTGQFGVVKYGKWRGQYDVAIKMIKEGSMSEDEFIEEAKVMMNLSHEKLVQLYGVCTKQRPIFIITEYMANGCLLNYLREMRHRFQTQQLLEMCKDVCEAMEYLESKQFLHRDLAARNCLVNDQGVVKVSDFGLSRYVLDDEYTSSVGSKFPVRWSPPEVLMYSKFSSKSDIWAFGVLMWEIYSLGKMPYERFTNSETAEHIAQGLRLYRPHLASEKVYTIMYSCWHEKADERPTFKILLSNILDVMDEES

Row | time to degrade BTK / reach maximum degradation (BTK) [h] | SMILES | inhibition of B cell activation (CD86) (primary mouse B cells; [1]) | inhibition of B cell activation compared to ibrutinib (primary mouse B cells; [1]) | inhibition of B cell activation compared to ibrutinib (primary mouse B cells; at 1 μM)
1 | 2 to 4 | Nc1ncnc2c1c(-c1ccc(Oc3ccccc3)cc1)nn2C1CCCN(C(=O)C=CCOCCOCCOCCOCCOCCOc2cccc3c2C(=O)N(C2CCC(=O)NC2=O)C3=O)C1 (centres unmarked) [IR-1] | – | – | –
2 | 2 to 4 | Nc1ncnc2c1c(-c1ccc(Oc3ccccc3)cc1)nn2C1CCCN(C(=O)C=CCCCCOCCOCCOCCOCCOc2cccc3c2C(=O)N(C2CCC(=O)NC2=O)C3=O)C1 (centres unmarked) [IR-2] | strongest effect | superior inhibition compared to ibrutinib | –
3 | 2 to 4 | Nc1ncnc2c1c(-c1ccc(Oc3ccccc3)cc1)nn2C1CCCN(C(=O)CCCCCCOCCOCCOCCOCCOc2cccc3c2C(=O)N(C2CCC(=O)NC2=O)C3=O)C1 (centres unmarked) [NC-1] | strongest effect | superior inhibition compared to ibrutinib | –
4 | 6 to 24 | N#CC(=CCCCCOCCOCCOCCOCCOc1cccc2c1C(=O)N(C1CCC(=O)NC1=O)C2=O)C(=O)N1CCCC(n2nc(-c3ccc(Oc4ccccc4)cc3)c3c(N)ncnc32)C1 (centres unmarked) [RC-2] | – | – | superior activity to ibrutinib
5 | 2 to 4 | CC(C)(C=C(C#N)C(=O)N1CCCC(n2nc(-c3ccc(Oc4ccccc4)cc3)c3c(N)ncnc32)C1)CCCOCCOCCOCCOCCOc1cccc2c1C(=O)N(C1CCC(=O)NC1=O)C2=O (centres unmarked) [RC-3] | – | – | superior activity to ibrutinib
